# Reference: patent US11319303B2 (WIGEN BIOMEDICINE TECHNOLOGY (SHANGHAI) CO., LTD., priority 2017, dated 2022)
# Target: LC3B (Homo sapiens, UniProt Q9GZQ8)
# Experiment: Fluorescence Polarization (FP) Assay: displacement of FITC-labeled peptide from GST-LC3B
# Type: binding
# Settings: Fluorescence Polarization assay; GST-LC3B 180 nM, FITC-labeled peptide 18 nM, 25° C.; read-out: IC50
# Experimental: The compounds of the present invention for regulating the autophagy-related protein LC3B were tested by Fluorescence Polarization (FP) Assay.
# Fluorescence Polarization (FP) Assay Test
row,IC50 [µM],SMILES
1,< 3,"O=C1CC(c2ccc(-c3ccncc3)cc2)CC(=O)C1=CNCCN1CCN(CCO)CC1 (centres unmarked) [Compound 73, 2-(((2-(4-(2-hydroxyethyl)piperazin-1-yl)ethyl)amino)methylene)-5-(4-(pyridin-4-yl)phenyl) cyclohexane-1,3-dione]"
2,< 3,"CN(C)C=Nc1nc2c(C3CC(=O)C(=CNCCN4CCN(CCO)CC4)C(=O)C3)cccc2s1 (centres unmarked) [Compound 74, N′-(4-(4-(((2-(4-(2-hydroxyethyl)piperazin-1-yl)ethyl)amino)methylene)-3,5-dioxocyclohexyl)benzo[d]thiazol-2-yl)-N,N-dimethyl-formimidamide]"
3,3 to 15,"O=C1CC(c2cccc(Oc3ccncc3)c2)CC(=O)C1=CNCCN1CCN(CCO)CC1 (centres unmarked) [Compound 75, 2-(((2-(4-(2-hydroxyethyl)piperazin-1-yl)ethyl)amino)methylene)-5-(3-(pyridin-4-yloxy)phenyl) cyclohexane-1,3-dione]"
4,15 to 100,"CCOc1ncnc2c1ncn2-c1ccc(C2CC(=O)C(=CNCCN3CCN(CCO)CC3)C(=O)C2)cc1 (centres unmarked) [Compound 76, 5-(4-(6-ethoxy-9H-purin-9-yl)phenyl)-2-(((2-(4-(2-hydroxyethyl)piperazin-1-yl)ethyl)amino)methylene) cyclohexane-1,3-dione]"
5,15 to 100,"O=C1CC(c2ccc(C(=O)N3CCOCC3)cc2)CC(=O)C1=CNCCN1CCN(CCO)CC1 (centres unmarked) [Compound 77, 2-(((2-(4-(2-hydroxyethyl)piperazin-1-yl)ethyl)amino)methylene)-5-(4-(morpholine-4-carbonyl)phenyl) cyclohexane-1,3-dione]"
6,15 to 100,O=C1CC([C@]23C[C@H]4C[C@H](C[C@H](C4)C2)C3)CC(=O)C1=CNCCN1CCN(CCO)CC1 (some centres unmarked) [Compound 78]
7,100 to 1000,"CN1CCN(c2ccc(C3CC(=O)C(=CNCCN4CCN(CCO)CC4)C(=O)C3)cn2)CC1 (centres unmarked) [Compound 79, 2-(((2-(4-(2-hydroxyethyl)piperazin-1-yl)ethyl)amino)methylene)-5-(6-(4-methylpiperazin-1-yl)pyridin-3-yl) cyclohexane-1,3-dione]"
8,15 to 100,"COCCOc1cc(C2CC(=O)C(=CNCCN3CCN(CCO)CC3)C(=O)C2)ccc1OC (centres unmarked) [Compound 80, 2-(((2-(4-(2-hydroxyethyl)piperazin-1-yl)ethyl)amino)methylene)-5-(4-methoxy-3-(2-methoxyethoxy)phenyl) cyclohexane-1,3-dione]"
9,15 to 100,"O=C1CC(c2ccc(-c3nccs3)cc2)CC(=O)C1=CNCCN1CCN(CCO)CC1 (centres unmarked) [Compound 81, 2-(((2-(4-(2-hydroxyethyl)piperazin-1-yl)ethyl)amino)methylene)-5-(4-(thiazol-2-yl)phenyl) cyclohexane-1,3-dione]"
10,15 to 100,"O=C1CC(c2ccc(-n3ccnc3)nc2)CC(=O)C1=CNCCN1CCN(CCO)CC1 (centres unmarked) [Compound 82, 5-(6-(1H-imidazol-1-yl)pyridin-3-yl)-2-(((2-(4-(2-hydroxyethyl)piperazin-1-yl)ethyl)amino)methylene) cyclohexane-1,3-dione]"
11,15 to 100,"O=C1CC(c2ccc(Nc3nccs3)nc2)CC(=O)C1=CNCCN1CCN(CCO)CC1 (centres unmarked) [Compound 83, 2-(((2-(4-(2-hydroxyethyl)piperazin-1-yl)ethyl)amino)methylene)-5-(6-(thiazol-2-ylamino)pyridin-3-yl)cyclohexane-1,3-dione]"
12,15 to 100,"COCCN1c2ccccc2Sc2cc(C3CC(=O)C(=CNCCN4CCN(CCO)CC4)C(=O)C3)ccc21 (centres unmarked) [Compound 84, 2-(((2-(4-(2-hydroxyethyl)piperazin-1-yl)ethyl)amino)methylene)-5-(10-(2-methoxyethyl)-10H-phenothiazin-3-yl)cyclohexane-1,3-dione]"
13,15 to 100,"Nc1nc2c(C3CC(=O)C(=CNCCN4CCN(CCO)CC4)C(=O)C3)cccc2s1 (centres unmarked) [Compound 85, 5-(2-aminobenzo[d]thiazol-4-yl)-2-(((2-(4-(2-hydroxyethyl)piperazin-1-yl)ethyl)amino)methylene)cyclohexane-1,3-dione]"
14,15 to 100,"O=C1CC2(CCC2)CC(=O)C1=CNCCN1CCN(CCO)CC1 [Compound 86, 7-(((2-(4-(2-hydroxyethyl)piperazin-1-yl)ethyl)amino)methylene)-spiro[3.5]nonane-6,8-dione]"
15,15 to 100,"O=C1CC(c2ccc(-n3ccnc3)cc2)CC(=O)C1=CNCCN1CCN(CCO)CC1 (centres unmarked) [Compound 87, 5-(4-(1H-imidazol-1-yl)phenyl)-2-(((2-(4-(2-hydroxyethyl)piperazin-1-yl)ethyl)amino)methylene) cyclohexane-1,3-dione]"
16,3 to 15,"O=C1CC(c2cnc3ccccc3n2)CC(=O)C1=CNCCN1CCN(CCO)CC1 (centres unmarked) [Compound 88, 2-(((2-(4-(2-hydroxyethyl)piperazin-1-yl)ethyl)amino)methylene)-5-(quinoxalin-2-yl)cyclohexane-1,3-dione]"
17,100 to 1000,"O=C1CC(c2ccc(OCCN3CCOCC3)nc2)CC(=O)C1=CNCCN1CCN(CCO)CC1 (centres unmarked) [Compound 89, 2-(((2-(4-(2-hydroxyethyl)piperazin-1-yl)ethyl)amino)methylene)-5-(6-(2-morpholinoethoxy)pyridin-3-yl)cyclohexane-1,3-dione]"
18,100 to 1000,"O=C1CC(c2cncnc2)CC(=O)C1=CNCCN1CCN(CCO)CC1 (centres unmarked) [Compound 90, 2-(((2-(4-(2-hydroxyethyl)piperazin-1-yl)ethyl)amino)methylene)-5-(pyrimidin-5-yl)cyclohexane-1,3-dione]"
19,15 to 100,"O=C1CC(c2cnc(N3CCOCC3)nc2)CC(=O)C1=CNCCN1CCN(CCO)CC1 (centres unmarked) [Compound 91, 2-(((2-(4-(2-hydroxyethyl)piperazin-1-yl)ethyl)amino)methylene)-5-(2-morpholino-pyrimidin-5-yl)cyclohexane-1,3-dione]"
20,15 to 100,O=C1CC(c2ccc(S(=O)(=O)N3CCOCC3)cc2)CC(=O)C1=CNCCN1CCN(CCO)CC1 (centres unmarked) [Compound 92]
21,3 to 15,"O=C1CC(c2cccc3[nH]ncc23)CC(=O)C1=CNCCN1CCN(CCO)CC1 (centres unmarked) [Compound 93, 2-(((2-(4-(2-hydroxyethyl)piperazin-1-yl)ethyl)amino)methylene)-5-(1H-indazol-4-yl)cyclohexane-1,3-dione]"
22,15 to 100,"O=C1CC(C(F)(F)F)CC(=O)C1=CNCCN1CCN(CCO)CC1 (centres unmarked) [Compound 94, 2-(((2-(4-(2-hydroxyethyl)piperazin-1-yl)ethyl)amino)methylene)-5-(trifluoromethyl) cyclohexane-1,3-dione]"
23,15 to 100,"O=C1CC(c2ccccc2)OC(=O)C1=CNCCN1CCN(CCO)CC1 (centres unmarked) [Compound 95, 3-(((2-(4-(2-hydroxyethyl)piperazin-1-yl)ethyl)amino)methylene)-6-phenyldihydro-2H-pyran-2,4(3H)-dione]"
24,100 to 1000,"O=C1CC(c2ccccc2)NC(=O)C1=CNCCN1CCN(CCO)CC1 (centres unmarked) [Compound 96, 3-(((2-(4-(2-hydroxyethyl)piperazin-1-yl)ethyl)amino)methylene)-6-phenylpiperidine-2,4-dione]"
25,15 to 100,"O=C1CN(c2ccccc2)CC(=O)C1=CNCCN1CCN(CCO)CC1 [Compound 97, 4-(((2-(4-(2-hydroxyethyl)piperazin-1-yl)ethyl)amino)methylene)-1-phenylpiperidine-3,5-dione]"
26,100 to 1000,"O=C1CCN(c2ccccc2)C(=O)/C1=C\NCCN1CCN(CCO)CC1 [Compound 99, 3-(((2-(4-(2-hydroxyethyl)piperazin-1-yl)ethyl)amino)methylene)-1-phenylpiperidine-2,4-dione]"
